Laboratory results taken from DBAASP.
Converted amounts (≈) assume the structure as drawn.

Key:
Assay in all cases: ≥ marks a high value that may be exact or a test limit, other limits are often not marked, values filed in µg/mL are converted to µM
[1] = test system: Staphylococcus aureus JC114
[2] = test system: Pseudomonas aeruginosa JC115
[3] = test system: Bacillus subtilis JC443
[4] = test system: Escherichia coli JC113
[5] = test system: Candida tropicalis 092422
[6] = test system: Salmonella enterica subsp. enterica serovar Choleraesuis CVCC 503
[7] = test system: Staphylococcus aureus ATCC 43300
[8] = test system: Salmonella enterica subsp. enterica serovar Pullorum C79-13
[9] = test system: Staphylococcus epidermidis ATCC 12228
[10] = test system: Staphylococcus aureus ATCC 29213
[11] = test system: Lacticaseibacillus rhamnosus 8014
[12] = test system: Streptococcus agalactiae BNCC 185941
[13] = test system: Salmonella enterica subsp. enterica serovar Typhimurium ATCC 14028
[14] = test system: Lacticaseibacillus rhamnosus 1.9021
[15] = test system: Escherichia coli K88
[16] = test system: Lacticaseibacillus rhamnosus 1.0936
[17] = test system: Pseudomonas aeruginosa PAO1
[18] = test system: Lacticaseibacillus rhamnosus 1.0911
[19] = test system: Escherichia coli O157:H7 CICC 21530
[20] = test system: Pseudomonas aeruginosa ATCC 27853
[21] = test system: Bacillus subtilis KCTC 3068
[22] = test system: Pseudomonas aeruginosa KCTC 1637
[23] = test system: Escherichia coli KCTC 1682
[24] = test system: Acinetobacter baumannii KCCM 1053
[25] = test system: Enterococcus faecalis ATCC 51575
[26] = test system: Staphylococcus aureus KCTC 1621
[27] = test system: Acinetobacter baumannii ATCC BAA-1605
[28] = test system: Salmonella typhimurium KCTC 1926
[29] = test system: Staphylococcus aureus KCCM 40510
[30] = test system: Staphylococcus epidermidis KCTC 1917
[31] = test system: Enterococcus faecalis KCCM 11814
[32] = test system: Pseudomonas aeruginosa CCARM 2180
[33] = test system: Staphylococcus aureus CCARM 3125
[34] = test system: Pseudomonas aeruginosa 4007
[35] = test system: Listeria monocytogenes KCTC 19111
[36] = test system: Pseudomonas aeruginosa 3241
[37] = test system: Staphylococcus aureus 3399
[38] = test system: Staphylococcus aureus CCARM 3709
[39] = test system: Pseudomonas aeruginosa CCARM 2073
[40] = test system: Staphylococcus aureus 3518
[41] = test system: Pseudomonas aeruginosa CCARM 2075
[42] = test system: Escherichia coli ATCC 25922
[43] = test system: Staphylococcus aureus ATCC 25923
[44] = test system: Pseudomonas aeruginosa ATCC 15692
[45] = test system: Legionella pneumophila Lens

SMILES: NC(=O)[C@H](Cc1ccccc1)NC(=O)[C@@H]1CSSC[C@H](NC(=O)[C@H](Cc2ccccc2)NC(=O)[C@H](Cc2ccccc2)NC(=O)[C@@H](N)Cc2ccccc2)C(=O)N[C@@H](CO)C(=O)N[C@@H](CCCN=C(N)N)C(=O)N1 [FFFCSRCF]
- MIC [1]: ≥ 180 µM
- MIC [2]: ≥ 157 µM
- MIC [3]: ≥ 171 µM
- MIC [4]: ≥ 152 µM

SMILES: CC[C@H](C)[C@H](NC(=O)[C@H](C)NC(=O)[C@@H]1CCCN1C(=O)[C@@H](NC(=O)[C@@H](N)Cc1ccccc1)C(C)C)C(=O)N[C@@H](CC(C)C)C(=O)N[C@H]1CSSC[C@@H](C(=O)O)NC(=O)[C@H]([C@@H](C)O)NC(=O)[C@H](CCCCN)NC(=O)[C@H](CC(C)C)NC(=O)[C@H]([C@@H](C)CC)NC(=O)[C@H](CO)NC1=O [FVPAILCSILKTC]
- MIC [5]: ≥ 71 µM

SMILES: CC(C)C[C@H](NC(=O)CNC(=O)[C@H](CC(C)C)NC(=O)[C@H](Cc1c[nH]c2ccccc12)NC(=O)[C@H](CC(C)C)NC(=O)CNC(=O)[C@H](CC(C)C)NC(=O)[C@H](CCCCN)NC(=O)[C@@H](N)CCCCN)C(=O)N[C@@H](CCCCN)C(=O)N[C@@H](CCCCN)C(N)=O [KKLGLWLGLKK]
- MIC [6]: ≥ 64 µM
- MIC [7]: > 128 µM
- MIC [8]: 8 µM (≈ 10.3 µg/mL)
- MIC [9]: > 128 µM
- MIC [10]: > 128 µM
- MIC [11]: ≥ 128 µM
- MIC [12]: ≥ 128 µM
- MIC [13]: 64 µM (≈ 82.1 µg/mL)
- MIC [14]: ≥ 128 µM
- MIC [15]: 8 µM (≈ 10.3 µg/mL)
- MIC [16]: ≥ 128 µM
- MIC [17]: 64 µM (≈ 82.1 µg/mL)
- MIC [18]: ≥ 128 µM
- MIC [19]: 8 µM (≈ 10.3 µg/mL)
- MIC [20]: 32 µM (≈ 41 µg/mL)

SMILES: CC[C@H](C)[C@@H]1NC(=O)[C@H](CCCCN)NC(=O)[C@@H](NC(=O)[C@H](CC(C)C)NC(=O)[C@@H](N)CCCCN)CSSC[C@@H](C(=O)N[C@@H](CCCCN)C(=O)O)NC(=O)[C@H](C(C)C)NC(=O)[C@H](CCCCN)NC(=O)[C@H]([C@@H](C)CC)NC(=O)[C@H](C(C)C)NC(=O)[C@H](C(C)C)NC1=O [KLCKIVVIKVCK]
- MIC [21]: ≥ 64 µM
- MIC [22]: ≥ 64 µM
- MIC [23]: 8 µM (≈ 11 µg/mL)
- MIC [24]: ≥ 64 µM
- MIC [25]: ≥ 64 µM
- MIC [26]: ≥ 64 µM
- MIC [27]: ≥ 64 µM
- MIC [28]: ≥ 64 µM
- MIC [29]: ≥ 64 µM
- MIC [30]: ≥ 32 µM
- MIC [31]: ≥ 64 µM
- MIC [32]: ≥ 64 µM

SMILES: CC(C)C[C@H](NC(=O)[C@H](Cc1c[nH]c2ccccc12)NC(=O)[C@H](CCCCN)NC(=O)[C@H](CCCCN)NC(=O)[C@H](CC(C)C)NC(=O)[C@H](Cc1c[nH]c2ccccc12)NC(=O)[C@H](CCCCN)NC(=O)[C@H](CCCCN)NC(=O)[C@H](CC(C)C)NC(=O)[C@H](Cc1c[nH]c2ccccc12)NC(=O)[C@@H](N)CCCCN)C(=O)N[C@@H](CCCCN)C(N)=O [KWLKKWLKKWLK]
- MIC [33]: 2 µM (≈ 3.37 µg/mL)
- MIC [34]: 2 µM (≈ 3.37 µg/mL)
- MIC [35]: 2 µM (≈ 3.37 µg/mL)
- MIC [36]: 2 µM (≈ 3.37 µg/mL)
- MIC [37]: 2 µM (≈ 3.37 µg/mL)
- MIC [38]: 2 µM (≈ 3.37 µg/mL)
- MIC [39]: 2 µM (≈ 3.37 µg/mL)
- MIC [40]: 2 µM (≈ 3.37 µg/mL)
- MIC [28]: 2 µM (≈ 3.37 µg/mL)
- MIC [41]: 1 µM (≈ 1.68 µg/mL)
- MIC [42]: 1 µM (≈ 1.68 µg/mL)
- MIC [30]: 1 µM (≈ 1.68 µg/mL)
- MIC [43]: 2 µM (≈ 3.37 µg/mL)
- MIC [44]: 2 µM (≈ 3.37 µg/mL)

SMILES: CC[C@H](C)[C@H](NC(=O)[C@H](CC(C)C)NC(=O)CNC(=O)[C@H](CCCCN)NC(=O)[C@@H](NC(=O)[C@@H](NC(=O)[C@H](CCC(=O)O)NC(=O)[C@H](Cc1ccccc1)NC(=O)[C@@H](NC(=O)[C@H](CCCCN)NC(=O)[C@H](C)NC(=O)[C@@H](NC(=O)[C@@H](NC(=O)[C@H](CC(=O)O)NC(=O)[C@H](C)NC(=O)[C@@H](N)CCSC)C(C)C)[C@@H](C)CC)[C@@H](C)CC)[C@@H](C)CC)C(C)C)C(=O)N[C@@H](CC(=O)O)C(=O)N[C@@H](CCC(N)=O)C(=O)N[C@@H](Cc1ccccc1)C(=O)N[C@H](C(=O)N[C@@H](CCC(N)=O)C(=O)N[C@@H](CCCCN)C(=O)O)[C@@H](C)O [MADVIAKIFEIVKGLIDQFTQK]
- MIC [45]: 1.85 µM (≈ 4.64 µg/mL)
